Data published in PubChem BioAssay AID256 (DTP/NCI, 2004).
“And” between values parts separate entries of the source, which are not always exact repeats. Equal entries are not always repeated. Inconclusive results and toxic doses are left out. How the source made its calls: active means survival T/C of 150% or more; inactive means T/C below 125% in these data.

System: CD2F1 mice, L1210 leukemia ip, survival T/C
Assay: NCI In Vivo Anticancer Drug Screen. Data for tumor model L1210 Leukemia (intraperitoneal) in CD2F1 (CDF1) mice
Conditions: endpoint: mean survival time, higher = longer survival
In short: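 Transplantable tumor in mice; compound-treated vs vehicle-treated groups. Read-out = treated/control ratio of the measured endpoint.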

[1] = dose: 100.0 mg/kg/injection, schedule: Q04DX003 (ip), vehicle: saline with Tween-80
[2] = dose: 200.0 mg/kg/injection, schedule: Q04DX003 (ip), vehicle: saline with Tween-80
[3] = dose: 100.0 mg/kg/injection, schedule: Q01DX001 (ip), vehicle: saline with Tween-80
[4] = dose: 200.0 mg/kg/injection, schedule: Q01DX001 (ip), vehicle: saline with Tween-80

Measured: T/C

FC1(F)C(Cl)=[C]([Hg][C]2=C(Cl)C(F)(F)C(F)(F)C(F)(F)C2(F)F)C(F)(F)C(F)(F)C1(F)F
inactive: dose: 37.5 mg/kg/injection, schedule: Q04DX003 (ip), vehicle: saline 104 % of control | dose: 75.0 mg/kg/injection, schedule: Q01DX001 (ip), vehicle: saline 106 % of control | dose: 75.0 mg/kg/injection, schedule: Q04DX003 (ip), vehicle: saline 97 % of control | dose: 150.0 mg/kg/injection, schedule: Q01DX001 (ip), vehicle: saline 95 % of control

CC(C)=CCC(O)C1=CC(=O)c2c(O)ccc(O)c2C1=O (centres undefined)
inactive: dose: 7.5 mg/kg/injection, schedule: Q04DX003 (ip), vehicle: saline sonified 98 % of control | dose: 15.0 mg/kg/injection, schedule: Q04DX003 (ip), vehicle: saline sonified 102 % of control | dose: 30.0 mg/kg/injection, schedule: Q04DX003 (ip), vehicle: saline sonified 101 % of control

COC(=O)C(Cl)c1ccc2c(c1)OCO2 (centres undefined)
inactive: dose: 50.0 mg/kg/injection, schedule: Q01DX009 (ip), vehicle: saline with Tween-80 96 % of control | dose: 100.0 mg/kg/injection, schedule: Q01DX009 (ip), vehicle: saline with Tween-80 96 % of control | [1] 96 % of control | [2] 93 % of control

O=c1cc(NCCCCc2ccccc2)[nH]c(=O)[nH]1
inactive: [3] 94 % of control | [4] 91 % of control | dose: 400.0 mg/kg/injection, schedule: Q01DX001 (ip), vehicle: saline with Tween-80 91 % of control

Cc1cccnc1NC1=NCCO1
inactive: [1] 101 % of control | [2] 98 % of control | dose: 400.0 mg/kg/injection, schedule: Q04DX003 (ip), vehicle: saline with Tween-80 98 % of control

OCCOCC12c3ccccc3C3C(c4ccccc41)C32 (centres undefined)
inactive: dose: 25.0 mg/kg/injection, schedule: Q01DX001 (ip), vehicle: saline with Tween-80 91 % of control | dose: 50.0 mg/kg/injection, schedule: Q01DX001 (ip), vehicle: saline with Tween-80 97 % of control | [3] 105 % of control | [4] 94 % of control

OCC1(CO)COC2(CCCCC2)N1
inactive: dose: 12.5 mg/kg/injection, schedule: Q01DX009 (ip), vehicle: saline 101 % of control and 103 % of control | dose: 25.0 mg/kg/injection, schedule: Q01DX009 (ip), vehicle: saline 103 % of control and 104 % of control | dose: 50.0 mg/kg/injection, schedule: Q01DX009 (ip), vehicle: saline 98 % of control | dose: 100.0 mg/kg/injection, schedule: Q01DX009 (ip), vehicle: saline 95 % of control and 103 % of control | dose: 200.0 mg/kg/injection, schedule: Q01DX009 (ip), vehicle: saline 97 % of control | dose: 400.0 mg/kg/injection, schedule: Q01DX009 (ip), vehicle: saline 95 % of control and 104 % of control

S=C([S-])N1CCCCC1.S=C([S-])N1CCCCC1.[Zn]
inactive: dose: 18.8 mg/kg/injection, schedule: Q01DX009 (ip), vehicle: saline 93 % of control | dose: 37.5 mg/kg/injection, schedule: Q01DX009 (ip), vehicle: saline 90 % of control
